What all share (assay): Kinase panel study
Type in all cases: biochemical
Holding throughout (conditions): read-out: Percentage of inhibition; for inhibition at 1 µM: 1000nM; for inhibition at 10 µM: 10000nM

One assay concerns the target T1, CAMK2B (CaMKII beta) (Homo sapiens, UniProt Q13554).
T1 construct: purchased Thermo Fisher Scientific
The method in brief:
(§1)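 ZLyte/Adapta biochemical kinase assays, standard operating procedures; % inhibition at 1 µM or 10 µM test compound; IC50 determined in panel.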

Another assay addresses T2, PLK1 (Homo sapiens, UniProt P53350).
T2 construct: purchased Thermo Fisher Scientific
The method in brief:
as §1

For another assay, the target named is T3, MAP3K19 (YSK4) (Homo sapiens, UniProt Q56UN5).
T3 construct: purchased Thermo Fisher Scientific
T3 sequence (Q56UN5 1-1328): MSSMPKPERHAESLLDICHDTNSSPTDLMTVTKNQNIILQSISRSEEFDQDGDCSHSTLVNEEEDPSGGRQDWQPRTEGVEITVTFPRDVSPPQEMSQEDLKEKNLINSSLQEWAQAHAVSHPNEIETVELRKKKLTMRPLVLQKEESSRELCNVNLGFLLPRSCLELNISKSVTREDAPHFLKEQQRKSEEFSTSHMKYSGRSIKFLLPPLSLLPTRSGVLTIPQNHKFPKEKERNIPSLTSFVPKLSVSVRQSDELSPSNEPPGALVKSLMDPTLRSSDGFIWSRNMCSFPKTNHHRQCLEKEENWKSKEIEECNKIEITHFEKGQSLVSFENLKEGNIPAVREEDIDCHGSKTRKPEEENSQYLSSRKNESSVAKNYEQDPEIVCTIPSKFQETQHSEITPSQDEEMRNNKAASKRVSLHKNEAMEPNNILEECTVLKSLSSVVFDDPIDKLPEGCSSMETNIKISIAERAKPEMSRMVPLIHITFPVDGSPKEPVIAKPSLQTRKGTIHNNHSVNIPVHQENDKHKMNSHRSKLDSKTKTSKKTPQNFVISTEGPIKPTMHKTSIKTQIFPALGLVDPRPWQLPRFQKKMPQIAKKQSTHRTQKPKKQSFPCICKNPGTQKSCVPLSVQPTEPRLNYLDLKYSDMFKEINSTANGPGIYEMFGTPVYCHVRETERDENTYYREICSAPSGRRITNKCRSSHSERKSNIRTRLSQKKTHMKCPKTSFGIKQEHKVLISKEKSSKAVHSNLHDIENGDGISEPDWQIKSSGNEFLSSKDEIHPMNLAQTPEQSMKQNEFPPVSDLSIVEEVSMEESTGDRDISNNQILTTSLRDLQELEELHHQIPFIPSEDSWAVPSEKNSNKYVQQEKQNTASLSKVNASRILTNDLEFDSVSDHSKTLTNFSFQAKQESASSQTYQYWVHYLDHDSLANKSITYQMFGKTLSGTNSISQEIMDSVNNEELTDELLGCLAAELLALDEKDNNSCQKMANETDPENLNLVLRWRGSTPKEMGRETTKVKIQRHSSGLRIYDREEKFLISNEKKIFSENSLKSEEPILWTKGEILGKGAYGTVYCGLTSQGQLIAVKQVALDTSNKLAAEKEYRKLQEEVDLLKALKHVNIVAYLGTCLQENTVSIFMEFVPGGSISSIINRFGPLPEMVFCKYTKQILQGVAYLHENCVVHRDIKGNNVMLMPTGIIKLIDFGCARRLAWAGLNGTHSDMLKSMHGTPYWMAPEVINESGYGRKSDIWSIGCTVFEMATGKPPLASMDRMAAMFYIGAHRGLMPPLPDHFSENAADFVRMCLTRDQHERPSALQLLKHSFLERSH
The method, boiled down: as §1

The target of the next assay is T4, PRKG2 (PKG2) (Homo sapiens, UniProt Q13237).
T4 construct: purchased Thermo Fisher Scientific
T4 sequence (Q13237 1-762): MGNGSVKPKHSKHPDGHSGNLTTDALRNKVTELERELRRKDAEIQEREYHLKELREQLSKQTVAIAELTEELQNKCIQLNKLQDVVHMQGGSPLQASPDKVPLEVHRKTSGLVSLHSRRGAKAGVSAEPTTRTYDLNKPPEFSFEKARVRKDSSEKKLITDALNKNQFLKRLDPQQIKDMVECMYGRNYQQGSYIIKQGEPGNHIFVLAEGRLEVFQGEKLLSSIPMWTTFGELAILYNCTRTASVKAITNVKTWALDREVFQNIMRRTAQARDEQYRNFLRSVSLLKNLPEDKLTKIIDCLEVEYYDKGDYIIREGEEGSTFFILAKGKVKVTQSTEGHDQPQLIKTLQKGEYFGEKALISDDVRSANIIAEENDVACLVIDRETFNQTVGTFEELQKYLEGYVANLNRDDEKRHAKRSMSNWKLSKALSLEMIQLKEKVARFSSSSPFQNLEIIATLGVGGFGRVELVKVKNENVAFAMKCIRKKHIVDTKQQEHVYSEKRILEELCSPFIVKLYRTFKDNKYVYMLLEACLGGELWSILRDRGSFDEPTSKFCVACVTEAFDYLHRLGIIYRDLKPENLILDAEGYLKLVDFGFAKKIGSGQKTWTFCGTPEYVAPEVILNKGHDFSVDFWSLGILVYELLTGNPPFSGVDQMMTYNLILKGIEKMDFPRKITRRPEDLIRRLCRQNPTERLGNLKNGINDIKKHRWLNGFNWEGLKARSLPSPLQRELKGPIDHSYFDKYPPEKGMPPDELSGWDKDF
The method, boiled down: as §1

T2 sequence (P53350 whole entry): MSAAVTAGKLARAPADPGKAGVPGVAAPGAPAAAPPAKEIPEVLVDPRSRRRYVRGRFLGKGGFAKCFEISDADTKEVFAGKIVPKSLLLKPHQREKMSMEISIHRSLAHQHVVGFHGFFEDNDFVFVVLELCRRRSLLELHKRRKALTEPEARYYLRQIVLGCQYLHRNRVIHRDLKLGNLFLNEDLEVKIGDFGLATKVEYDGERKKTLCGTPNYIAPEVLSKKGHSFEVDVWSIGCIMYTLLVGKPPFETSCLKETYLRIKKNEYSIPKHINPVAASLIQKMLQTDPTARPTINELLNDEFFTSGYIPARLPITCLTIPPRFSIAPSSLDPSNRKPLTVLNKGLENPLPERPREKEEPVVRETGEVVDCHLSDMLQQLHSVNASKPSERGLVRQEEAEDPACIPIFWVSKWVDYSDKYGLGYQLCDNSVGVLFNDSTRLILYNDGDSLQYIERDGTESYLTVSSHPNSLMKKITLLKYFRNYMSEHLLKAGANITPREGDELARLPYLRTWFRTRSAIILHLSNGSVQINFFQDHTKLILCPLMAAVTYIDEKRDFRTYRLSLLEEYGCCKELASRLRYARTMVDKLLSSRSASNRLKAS

In general, inhibition refers to the change of the read-out against control, counted positive when it falls. With `COc1ccc2c(c1OC)c(=O)n1c3ccc(O)cc3c3ccnc2c31` [MW01, 5-Hydroxy-10,11-dimethoxy-9H-benzo[c]indolo[3,2,1-ij][1,5]naphthyridin-9-one], the inhibition at 1 µM was 9% on CAMK2B (CaMKII beta), 5% on PLK1, 4% at MAP3K19 (YSK4) and 47% at PRKG2 (PKG2). Also, the inhibition at 10 µM stood at 37% on CAMK2B (CaMKII beta), 3% at PLK1, 17% on MAP3K19 (YSK4) and 72% at PRKG2 (PKG2).

For `COc1ccc2cc3c(N)nn(C(=O)c4cccc(N(C)C)c4)c3nc2c1` [MW05, (3-Amino-7-methoxypyrazolo[3,4-b]quinolin-1-yl)-[3-(dimethylamino)phenyl]methanone], the inhibition at 1 µM on CAMK2B (CaMKII beta) is 5%; on PLK1, 6%; at MAP3K19 (YSK4), -3%; on PRKG2 (PKG2), 7%. Moreover, the inhibition at 10 µM is 3% at CAMK2B (CaMKII beta), 6% at PLK1, -5% at MAP3K19 (YSK4) and 0% on PRKG2 (PKG2).

The values above are taken from patent EP4467141A1, “PYRAZOLO-QUINOLINES AS SELECTIVE INHIBITORS OF GENOTOXIC STRESS-INDUCED IKK/NF- KB PATHWAYS FOR CANCER THERAPY” (Max-Delbrück-Centrum für Molekulare Medizin in der …, priority 2023, dated 2024).
